For 20 molecules, IC50 results are on record in patent publication US11306079B2, “3-(5-amino-pyrazin-2-yl)-benzenesulfonamide derivatives and related compounds as PI3K-gamma kinase inhibitors” (Incyte Corporation, priority 2017, dated 2022).

In assay [1] the target is PI3Kγ (p110γ) Recombinant Human Protein (Homo sapiens (Human), UniProt P48736). Briefly: PI3K-γ Scintillation Proximity Assay. Particulars: 20 μM PIP2, 2 μM ATP, 13 nM PI3Kγ, 120 min, room temperature. It is filed as biochemical. The method, boiled down:
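Recombinant human p110γ (13 nM) phosphorylated 20 μM PIP2 with 2 μM ATP plus [γ-33P]ATP in 20 mM MOPS pH 6.7, 10 mM MgCl2, 5 mM DTT, 0.03% CHAPS, 2% DMSO, 120 min at room temperature. Radiolabelled product was captured on WGA SPA beads and counted. IC50 came from curves of percent solvent-control activity.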

The target of assay [2] is PI3Kδ (p110δ/p85α) Recombinant Human Protein (Homo sapiens (Human), UniProt O00329). Briefly: PI3Kδ Scintillation Proximity Assay. Format: biochemical. Particulars: 20 μM PIP2, 2 μM ATP, 3.4 nM PI3Kδ, 120 min, room temperature. The method, boiled down: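 Radiometric read-out: 33P-labelled PIP3 product captured on WGA SPA beads and counted, with IC50 fitted from percent activity relative to DMSO control. Enzyme (3.4 nM) was incubated 120 min at room temperature with 20 μM PIP2 and 2 μM ATP at pH 6.7, 2% DMSO.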
A general note: SPA uses beads or plates that emit light when radiolabelled molecules are held near them.

Assay [3] has as its system Phosphorylated Ribosomal Protein S6 (RPS6) in THP-1 cells. Nature of the assay: THP-1 RPS6 ELISA Assay. It is filed as cell-based. Particulars: Homo sapiens; serum starved THP-1 cells, 2 hours with compound, 10 nM MCP-1 for 15 minutes, Phospho-RPS6 ELISA; read-out: PI3Kγ_THP1_RPS6_ELISA IC50. The method, boiled down: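 Phospho-RPS6 in lysates measured by ELISA at 450 nm, corrected at 540 nm, after MCP-1 challenge (10 nM, 15 min) of THP-1 cells that were starved overnight and exposed to test compound for 2 h at 37° C, 2×10^5 cells/well. Curve fit of percent inhibition gives IC50.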
A general note: An ELISA detects its analyte on a solid surface through an enzyme-linked reagent.

Counter-ions that a name gives are not always drawn.

Chain of PI3Kγ (p110γ) Recombinant Human Protein (P48736 whole entry): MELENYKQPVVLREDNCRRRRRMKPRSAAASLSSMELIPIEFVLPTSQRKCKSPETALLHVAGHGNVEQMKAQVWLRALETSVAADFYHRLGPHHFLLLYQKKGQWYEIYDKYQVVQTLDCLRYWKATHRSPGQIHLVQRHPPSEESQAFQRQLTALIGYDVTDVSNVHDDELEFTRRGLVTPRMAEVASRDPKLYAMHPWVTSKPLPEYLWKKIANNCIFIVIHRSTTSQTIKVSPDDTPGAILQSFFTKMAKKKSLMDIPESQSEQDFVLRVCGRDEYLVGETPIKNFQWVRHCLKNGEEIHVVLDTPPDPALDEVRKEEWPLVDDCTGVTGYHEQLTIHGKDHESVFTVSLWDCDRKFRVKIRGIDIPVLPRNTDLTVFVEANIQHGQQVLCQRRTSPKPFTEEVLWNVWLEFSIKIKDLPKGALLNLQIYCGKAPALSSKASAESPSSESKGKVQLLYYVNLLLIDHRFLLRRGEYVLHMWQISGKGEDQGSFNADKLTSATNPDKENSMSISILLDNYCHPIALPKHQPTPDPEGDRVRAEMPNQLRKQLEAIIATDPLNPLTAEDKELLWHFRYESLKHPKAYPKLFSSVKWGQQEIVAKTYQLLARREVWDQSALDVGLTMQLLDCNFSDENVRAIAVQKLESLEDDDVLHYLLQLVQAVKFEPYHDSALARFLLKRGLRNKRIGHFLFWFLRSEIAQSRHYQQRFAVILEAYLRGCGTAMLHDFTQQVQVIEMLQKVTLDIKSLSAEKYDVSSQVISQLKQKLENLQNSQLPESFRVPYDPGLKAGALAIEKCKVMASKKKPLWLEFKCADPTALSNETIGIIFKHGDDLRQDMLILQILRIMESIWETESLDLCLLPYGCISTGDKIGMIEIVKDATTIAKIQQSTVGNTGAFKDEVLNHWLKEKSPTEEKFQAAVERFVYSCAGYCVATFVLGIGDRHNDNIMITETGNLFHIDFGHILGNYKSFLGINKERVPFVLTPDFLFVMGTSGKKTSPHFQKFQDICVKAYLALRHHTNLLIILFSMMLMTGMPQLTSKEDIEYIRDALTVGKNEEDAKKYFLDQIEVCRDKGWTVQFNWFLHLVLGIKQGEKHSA
Chain of PI3Kδ (p110δ/p85α) Recombinant Human Protein (O00329 whole entry): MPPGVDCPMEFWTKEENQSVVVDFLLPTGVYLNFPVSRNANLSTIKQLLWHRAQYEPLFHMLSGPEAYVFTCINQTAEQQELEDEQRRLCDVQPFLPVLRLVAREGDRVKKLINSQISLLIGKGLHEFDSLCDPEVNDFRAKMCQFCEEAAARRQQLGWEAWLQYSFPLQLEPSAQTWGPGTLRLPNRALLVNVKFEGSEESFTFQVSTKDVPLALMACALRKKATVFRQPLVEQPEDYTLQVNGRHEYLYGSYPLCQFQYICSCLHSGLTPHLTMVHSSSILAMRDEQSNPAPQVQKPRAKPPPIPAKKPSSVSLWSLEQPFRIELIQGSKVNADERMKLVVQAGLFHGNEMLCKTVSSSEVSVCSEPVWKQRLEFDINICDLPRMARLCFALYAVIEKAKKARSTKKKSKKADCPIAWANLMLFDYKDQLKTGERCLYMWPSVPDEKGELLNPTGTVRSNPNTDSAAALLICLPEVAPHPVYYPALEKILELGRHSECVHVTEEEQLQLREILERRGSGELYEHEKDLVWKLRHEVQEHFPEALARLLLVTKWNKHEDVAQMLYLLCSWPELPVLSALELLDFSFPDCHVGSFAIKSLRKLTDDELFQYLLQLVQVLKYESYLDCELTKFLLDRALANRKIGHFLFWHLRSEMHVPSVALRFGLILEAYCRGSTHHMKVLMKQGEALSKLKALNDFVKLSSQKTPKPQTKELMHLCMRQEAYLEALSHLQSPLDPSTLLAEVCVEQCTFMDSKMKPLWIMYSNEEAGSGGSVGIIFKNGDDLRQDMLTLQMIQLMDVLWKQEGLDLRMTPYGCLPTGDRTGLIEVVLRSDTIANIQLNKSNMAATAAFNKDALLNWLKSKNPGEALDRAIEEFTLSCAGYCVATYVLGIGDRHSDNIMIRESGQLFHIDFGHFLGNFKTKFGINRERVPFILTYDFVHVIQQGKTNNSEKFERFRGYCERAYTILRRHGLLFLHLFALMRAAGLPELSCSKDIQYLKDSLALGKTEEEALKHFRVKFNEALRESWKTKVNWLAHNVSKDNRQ
Chain of PI3Kδ (p110δ/p85α) Recombinant Human Protein (P27986 whole entry partner): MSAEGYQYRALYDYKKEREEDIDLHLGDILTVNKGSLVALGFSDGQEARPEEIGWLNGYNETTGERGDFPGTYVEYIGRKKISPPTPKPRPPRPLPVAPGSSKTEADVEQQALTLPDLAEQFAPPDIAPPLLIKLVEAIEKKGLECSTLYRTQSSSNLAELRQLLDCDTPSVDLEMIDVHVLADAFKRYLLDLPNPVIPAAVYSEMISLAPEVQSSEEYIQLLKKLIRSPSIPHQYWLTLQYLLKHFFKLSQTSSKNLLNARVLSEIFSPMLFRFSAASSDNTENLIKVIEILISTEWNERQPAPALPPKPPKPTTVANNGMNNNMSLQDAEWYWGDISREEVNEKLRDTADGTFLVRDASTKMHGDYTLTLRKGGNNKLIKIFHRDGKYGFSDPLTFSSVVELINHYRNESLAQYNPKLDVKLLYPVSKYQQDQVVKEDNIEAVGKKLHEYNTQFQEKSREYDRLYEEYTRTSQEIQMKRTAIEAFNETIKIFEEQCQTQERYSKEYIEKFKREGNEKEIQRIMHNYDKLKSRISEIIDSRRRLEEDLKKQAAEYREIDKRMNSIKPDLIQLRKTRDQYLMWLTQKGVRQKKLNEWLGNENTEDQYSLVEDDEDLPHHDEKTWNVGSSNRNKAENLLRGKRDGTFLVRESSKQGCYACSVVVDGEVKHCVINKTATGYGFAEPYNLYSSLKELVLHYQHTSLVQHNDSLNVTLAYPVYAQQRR

As usually defined, the IC50 is the concentration that inhibits the measured activity by half. For the molecule `[2H]C([2H])([2H])c1ccc(S(=O)(=O)NC23CCN(CC2)C3)cc1-c1cnc(N)c(-c2cnco2)n1` [Example 94, 3-(5-amino-6-(oxazol-5-yl)pyrazin-2-yl)-N-(1-azabicyclo[2.2.1]heptan-4-yl)-4-(methyl-d3)benzenesulfonamide], the half-maximal inhibitory concentration (IC50) was not above 100 nM in assay [1], not above 500 nM in assay [2] and not above 100 nM in assay [3].
Turning to `[2H]C([2H])([2H])c1ccc(S(=O)(=O)NC23COC(CO)(C2)C3)cc1-c1cnc(N)c(-c2cnc(C3CC3)s2)n1` [Example 61, 3-(5-Amino-6-(2-cyclopropylthiazol-5-yl)pyrazin-2-yl)-N-(1-(hydroxymethyl)-2-oxabicyclo[2.1.1]hexan-4-yl)-4-(methyl-d3)benzenesulfonamide Trifluoroacetate Salt], the half-inhibitory concentration (IC50) in assay [1], in assay [2] and in assay [3] was not above 100 nM each time.
On to `Cc1ccc(S(=O)(=O)NC23CCC(C#N)(C2)C3)cc1-c1cnc(N)c(-n2cncn2)n1` [Example 28, 3-(5-Amino-6-(1H-1,2,4-triazol-1-yl)pyrazin-2-yl)-N-(4-cyanobicyclo[2.1.1]hexan-1-yl)-4-methylbenzenesulfonamide trifluoroacetate salt], for which the values for the IC50 in assay [1], in assay [2] and in assay [3] were not above 100 nM, not above 500 nM and not above 100 nM, respectively.
Consider `Cc1ccc(S(=O)(=O)NC23CC(C#N)(C2)C3)cc1-c1cnc(N)c(-n2ccnn2)n1` [Example 43, 3-(5-Amino-6-(1H-1,2,3-triazol-1-yl)pyrazin-2-yl)-N-(3-cyanobicyclo[1.1.1]pentan-1-yl)-4-methylbenzenesulfonamide Trifluoroacetate Salt], for which the IC50 is not above 100 nM in assay [1], not above 500 nM in assay [2] and not above 100 nM in assay [3].
On to `Cc1ccc(S(=O)(=O)NC23CCN(CC2)C3)cc1-c1cnc(N)c(-n2cccn2)n1` [Example 93, 3-(5-amino-6-(1H-pyrazol-1-yl)pyrazin-2-yl)-N-(1-azabicyclo[2.2.1]heptan-4-yl)-4-methylbenzenesulfonamide], for which the half-inhibitory concentration (IC50) in assay [1], in assay [2] and in assay [3] was not above 100 nM each time.
For `Cc1ccc(S(=O)(=O)NC23COC(CO)(C2)C3)cc1-c1cnc(N)c(-c2cnc(C3CC3)s2)c1` [Example 89, 3-(6-amino-5-(2-cyclopropylthiazol-5-yl)pyridin-3-yl)-N-(1-(hydroxymethyl)-2-oxabicyclo[2.1.1]hexan-4-yl)-4-methylbenzenesulfonamide], the values for the IC50 in assay [1], in assay [2] and in assay [3] were not above 100 nM, not above 500 nM and not above 100 nM, respectively.
Consider `Cc1ccc(S(=O)(=O)NC23CC(C(=O)NCC(F)(F)F)(C2)C3)cc1-c1cnc(N)c(-n2cncn2)n1` [Example 35, 3-(3-(5-Amino-6-(1H-1,2,4-triazol-1-yl)pyrazin-2-yl)-4-methylphenylsulfonamido)-N-(2,2,2-trifluoroethyl)bicyclo[1.1.1]pentane-1-carboxamide trifluoroacetate salt], for which the half-inhibitory concentration (IC50) in assay [1] was not above 100 nM; in assay [2] it was not above 500 nM; in assay [3], not above 1000 nM.
Take `Cc1ccc(S(=O)(=O)NC23CCC(C#N)(C2)C3)cc1-c1cnc(N)c(-n2ccnn2)n1` [Example 44, 3-(5-Amino-6-(1H-1,2,3-triazol-1-yl)pyrazin-2-yl)-N-(4-cyanobicyclo[2.1.1]hexan-1-yl)-4-methylbenzenesulfonamide Trifluoroacetate Salt]: the 50% inhibitory concentration (IC50) in assay [1], in assay [2] and in assay [3] was not above 100 nM in each case.
With `[2H]C([2H])([2H])c1ccc(S(=O)(=O)NC23CCC(O)(C2)C3)cc1-c1cnc(N)c(-c2ccnc(SC)n2)n1` [Example 77, 3-(5-Amino-6-(2-(methylthio)pyrimidin-4-yl)pyrazin-2-yl)-N-(4-hydroxybicyclo[2.1.1]hexan-1-yl)-4-(methyl-d3)benzenesulfonamide], the half-inhibitory concentration (IC50) in assay [1], in assay [2] and in assay [3] was not above 100 nM throughout.
Turning to `[2H]C([2H])([2H])c1ccc(S(=O)(=O)NC23CCC(C#N)(C2)C3)cc1-c1cnc(N)c(-c2cnc(N(C)C)nc2)n1` [Example 67, 3-(5-Amino-6-(2-(dimethylamino)pyrimidin-5-yl)pyrazin-2-yl)-N-(4-cyanobicyclo[2.1.1]hexan-1-yl)-4-(methyl-d3)benzenesulfonamide trifluoroacetate salt], the figures for the IC50 in assay [1], in assay [2] and in assay [3] were not above 100 nM, not above 500 nM and not above 100 nM, respectively.
Take `[2H]C([2H])([2H])c1ccc(S(=O)(=O)NC23CCN(CC2)C3)cc1-c1cnc(N)c(-n2cncn2)n1` [Example 90, 3-(5-amino-6-(1H-1,2,4-triazol-1-yl)pyrazin-2-yl)-N-(1-azabicyclo[2.2.1]heptan-4-yl)-4-(methyl-d3)benzenesulfonamide]: the half-inhibitory concentration (IC50) in assay [1], in assay [2] and in assay [3] was not above 100 nM throughout.
As to `[2H]C([2H])([2H])c1ccc(S(=O)(=O)NC23CC(C#N)(C2)C3)cc1-c1cnc(N)c(-c2ccnc(SC)n2)n1` [Example 76, 3-(5-Amino-6-(2-(methylthio)pyrimidin-4-yl)pyrazin-2-yl)-N-(3-cyanobicyclo[1.1.1]pentan-1-yl)-4-(methyl-d3)benzenesulfonamide], the IC50 in assay [1], in assay [2] and in assay [3] was not above 100 nM each time.
As for `Cc1ncc(-c2nc(-c3cc(S(=O)(=O)NC45CCC(CO)(CC4)OC5)ccc3C)cnc2N)s1` [Example 6, 3-(5-Amino-6-(2-methylthiazol-5-yl)pyrazin-2-yl)-N-(1-(hydroxymethyl)-2-oxabicyclo[2.2.2]octan-4-yl)-4-methylbenzenesulfonamide trifluoroacetate salt], the IC50 in assay [1], in assay [2] and in assay [3] was not above 100 nM in each case.
Regarding `Cc1ccc(S(=O)(=O)NC23CCC(CO)(CC2)OC3)cc1-c1cnc(N)c(-c2ccncc2F)n1` [Example 20, 3-(5-Amino-6-(3-fluoropyridin-4-yl)pyrazin-2-yl)-N-(1-(hydroxymethyl)-2-oxabicyclo[2.2.2]octan-4-yl)-4-methylbenzenesulfonamide trifluoroacetate salt], the IC50 is not above 100 nM in assay [1], not above 500 nM in assay [2] and not above 500 nM in assay [3].
Regarding `Cc1ccc(S(=O)(=O)NC23CNC(C2)C3)cc1-c1cnc(N)c(-n2cccn2)n1` [Example 58, 3-(5-Amino-6-(1H-pyrazol-1-yl)pyrazin-2-yl)-N-(2-azabicyclo[2.1.1]hexan-4-yl)-4-methylbenzenesulfonamide trifluoroacetate salt], the values for the 50% inhibitory concentration (IC50) in assay [1], in assay [2] and in assay [3] were not above 100 nM, not above 500 nM and not above 1000 nM, respectively.
The matching figures for `Cc1ccc(S(=O)(=O)NC23CCC(C#N)(C2)C3)cc1-c1cnc(N)c(-n2nccn2)n1` [Example 42, 3-(5-Amino-6-(2H-1,2,3-triazol-2-yl)pyrazin-2-yl)-N-(4-cyanobicyclo[2.1.1]hexan-1-yl)-4-methylbenzenesulfonamide Trifluoroacetate Salt]: not above 100 nM, not above 500 nM and not above 100 nM.
The matching figures for `Cc1ncc(-c2nc(-c3cc(S(=O)(=O)NC45COC(C(C)O)(C4)C5)ccc3C)cnc2N)s1` (stereo not drawn) [Example 8, 3-(5-Amino-6-(2-methylthiazol-5-yl)pyrazin-2-yl)-N-(1-(1-hydroxyethyl)-2-oxabicyclo[2.1.1]hexan-4-yl)-4-methylbenzenesulfonamide trifluoroacetate salt]: not above 100 nM, not above 100 nM and not above 100 nM.
For `O=C(O)C(F)(F)F.[2H]C([2H])([2H])c1ccc(S(=O)(=O)NC23CNC(C2)C3)cc1-c1cnc(N)c(-c2cnc(C)s2)n1` [Example 54, 3-(5-Amino-6-(2-methylthiazol-5-yl)pyrazin-2-yl)-N-(2-azabicyclo[2.1.1]hexan-4-yl)-4-(methyl-d3)benzenesulfonamide trifluoroacetate salt], the IC50 in assay [1] was not above 100 nM; in assay [2] it was not above 100 nM; in assay [3] it was not above 500 nM.
In the case of `Cc1ccc(S(=O)(=O)NC23CCC(CO)(CC2)OC3)cc1-c1cnc(N)c(-c2ccnc(C(F)(F)F)c2)n1` [Example 21, 3-(5-Amino-6-(2-(trifluoromethyl)pyridin-4-yl)pyrazin-2-yl)-N-(1-(hydroxymethyl)-2-oxabicyclo[2.2.2]octan-4-yl)-4-methylbenzenesulfonamide trifluoroacetate salt], the values for the IC50 in assay [1], in assay [2] and in assay [3] were not above 100 nM, not above 500 nM and not above 500 nM, respectively.
Take `[2H]C([2H])([2H])c1ccc(S(=O)(=O)NC23CC(CO)(C2)C3)cc1-c1cnc(N)c(-c2ccncn2)n1` [Example 81, 3-(5-Amino-6-(pyrimidin-4-yl)pyrazin-2-yl)-N-(3-(hydroxymethyl)bicyclo[1.1.1]pentan-1-yl)-4-(methyl-d3)benzenesulfonamide trifluoroacetate salt]: the IC50 was not above 100 nM in assay [1], not above 100 nM in assay [2] and not above 500 nM in assay [3].
